Target: T1, JsTPS3 (GST-JsTPS3) (Jasminum sambac, UniProt A0A8T9EC85)
T1 construct: gene TPS3; full-length CDS in pGEX-6p-1, N-terminal GST tag kept, E. coli Rosetta (DE3), ~98 kDa with tag
T1 sequence (A0A8T9EC85 1-540): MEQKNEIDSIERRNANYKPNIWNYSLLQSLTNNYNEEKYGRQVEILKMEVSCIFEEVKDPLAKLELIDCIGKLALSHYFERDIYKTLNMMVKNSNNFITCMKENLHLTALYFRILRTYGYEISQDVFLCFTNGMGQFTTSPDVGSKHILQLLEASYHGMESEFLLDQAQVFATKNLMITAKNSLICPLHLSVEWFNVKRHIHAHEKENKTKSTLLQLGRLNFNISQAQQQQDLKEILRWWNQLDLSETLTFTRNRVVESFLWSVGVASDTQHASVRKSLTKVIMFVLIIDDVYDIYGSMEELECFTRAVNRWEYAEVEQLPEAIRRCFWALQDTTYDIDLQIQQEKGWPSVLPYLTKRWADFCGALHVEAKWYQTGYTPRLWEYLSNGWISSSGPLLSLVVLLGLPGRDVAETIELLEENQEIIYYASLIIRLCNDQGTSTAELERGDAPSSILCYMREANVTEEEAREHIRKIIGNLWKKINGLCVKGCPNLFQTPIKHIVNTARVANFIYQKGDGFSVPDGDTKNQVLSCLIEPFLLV
Assay: GC-Orbitrap MS detection of trans-beta-ocimene and beta-ocimene formed
Assay type: biochemical
Conditions: 60 uM GPP; 30 mM HEPES pH 7.5, 5 mM DTT, 25 mM MgCl2; 30 °C 1 h, then 45 °C 15 min; 10 or 15 ug enzyme in 1 ml

CC(C)=CCC/C(C)=C/COP(=O)(O)OP(=O)(O)O [GPP, geranyl pyrophosphate]
GC-Orbitrap MS detection of trans-beta-ocimene and beta-ocimene formed: recombinant JsTPS3 protein exerts TPS activity by catalyzing GPP into trans-β-ocimene and β-ocimene

Source: publication PMC10372924, “The Jasmine (Jasminum sambac) Genome Provides Insight into the Biosynthesis of Flower Fragrances and Jasmonates” (Genomics, Proteomics & Bioinformatics, 2022)
